# Measured values as given in publication PMC10914731, “Homo-BacPROTAC-induced degradation of ClpC1 as a strategy against drug-resistant mycobacteria” (Nature Communications, 2024).
# Values joined by “and” are separate entries in the source; they are usually repeats but may differ in a detail not shown here. Identical values can stand only once. Like-named read-outs stand apart in the source and are kept apart here.
# Tests used:
# [1] = target: ClpC1 NTD protein (M. tuberculosis) (Mycobacterium tuberculosis, UniProt P9WPC9); assay: biochemical; type: binding
# ClpC1 NTD protein (M. tuberculosis), sequence (P9WPC9 1-156, looked up, natural form): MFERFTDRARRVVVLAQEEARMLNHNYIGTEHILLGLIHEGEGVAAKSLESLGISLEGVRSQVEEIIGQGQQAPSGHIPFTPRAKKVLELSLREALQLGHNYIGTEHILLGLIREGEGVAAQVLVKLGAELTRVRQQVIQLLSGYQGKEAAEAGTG
# [2] = type: in vitro ADME, Mice
# Method in brief: (§1)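 Clearance values are expressed as % of liver blood flow, derived from first-order half-lives using the well-stirred liver model. Depletion of 1 µmol/l compound is followed by HPLC-MS/MS in NADPH-supplemented microsomes (0.5 mg/ml) at 37 °C, pH 7.5.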
# [3] = type: in vitro ADME, Rat
# Method in brief: as §1
# [4] = Microsomal stability, human; type: in vitro ADME
# Method in brief: as §1
# [5] = system: M. tuberculosis H37Rv (ATCC 27294); assay: microbe, parasite or virus in culture; type: cell-based
# Msm 607 = assay: microbe, parasite or virus in culture; type: cell-based
# [6] = system: Mtb H37Rv in THP-1 macrophages; assay: Intracellular MIC assay in THP-1 macrophages; type: cell-based, Mycobacterium tuberculosis; design: Emax: unit not given here
# [7] = target: His6-tagged ClpC1-NTD substrate, M. smegmatis ClpC1P1P2 (UniProt A0R574+P9WPC9); assay: biochemical; type: biochemical
# His6-tagged ClpC1-NTD substrate, M. smegmatis ClpC1P1P2, sequence (P9WPC9 1-156, looked up, natural form): as above
# His6-tagged ClpC1-NTD substrate, M. smegmatis ClpC1P1P2, sequence (A0R574 whole entry): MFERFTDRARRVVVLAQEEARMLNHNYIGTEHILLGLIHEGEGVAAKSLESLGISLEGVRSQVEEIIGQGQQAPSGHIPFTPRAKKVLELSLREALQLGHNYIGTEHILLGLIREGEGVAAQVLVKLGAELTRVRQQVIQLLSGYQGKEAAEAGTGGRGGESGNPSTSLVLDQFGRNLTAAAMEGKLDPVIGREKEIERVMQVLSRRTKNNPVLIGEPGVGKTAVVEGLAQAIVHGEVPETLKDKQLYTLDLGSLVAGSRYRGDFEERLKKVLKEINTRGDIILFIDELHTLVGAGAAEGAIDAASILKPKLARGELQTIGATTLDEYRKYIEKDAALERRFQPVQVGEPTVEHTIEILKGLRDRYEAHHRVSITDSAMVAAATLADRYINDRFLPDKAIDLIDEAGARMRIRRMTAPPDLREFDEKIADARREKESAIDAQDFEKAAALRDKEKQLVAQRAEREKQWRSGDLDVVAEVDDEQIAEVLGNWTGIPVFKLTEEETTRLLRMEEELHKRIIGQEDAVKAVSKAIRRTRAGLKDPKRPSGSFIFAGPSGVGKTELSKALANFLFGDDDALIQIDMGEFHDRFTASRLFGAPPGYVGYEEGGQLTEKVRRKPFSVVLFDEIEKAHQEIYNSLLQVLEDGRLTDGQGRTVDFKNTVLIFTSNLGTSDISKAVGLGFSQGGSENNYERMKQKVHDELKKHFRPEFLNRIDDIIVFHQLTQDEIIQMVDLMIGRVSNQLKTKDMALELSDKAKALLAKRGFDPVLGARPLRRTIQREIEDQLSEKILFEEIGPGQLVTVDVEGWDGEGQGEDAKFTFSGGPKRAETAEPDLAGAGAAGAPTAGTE
# [8] = target: ClpC1-NTD substrate, M. tuberculosis ClpC1P1P2 (Mycobacterium tuberculosis, UniProt P9WPC9); assay: biochemical; type: biochemical
# ClpC1-NTD substrate, M. tuberculosis ClpC1P1P2, sequence (P9WPC5 whole entry): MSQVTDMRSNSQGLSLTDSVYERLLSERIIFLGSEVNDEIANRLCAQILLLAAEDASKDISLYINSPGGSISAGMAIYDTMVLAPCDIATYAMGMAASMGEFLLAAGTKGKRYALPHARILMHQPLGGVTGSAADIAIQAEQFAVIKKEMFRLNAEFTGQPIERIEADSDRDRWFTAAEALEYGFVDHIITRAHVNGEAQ
# ClpC1-NTD substrate, M. tuberculosis ClpC1P1P2, sequence (P9WPC9 whole entry): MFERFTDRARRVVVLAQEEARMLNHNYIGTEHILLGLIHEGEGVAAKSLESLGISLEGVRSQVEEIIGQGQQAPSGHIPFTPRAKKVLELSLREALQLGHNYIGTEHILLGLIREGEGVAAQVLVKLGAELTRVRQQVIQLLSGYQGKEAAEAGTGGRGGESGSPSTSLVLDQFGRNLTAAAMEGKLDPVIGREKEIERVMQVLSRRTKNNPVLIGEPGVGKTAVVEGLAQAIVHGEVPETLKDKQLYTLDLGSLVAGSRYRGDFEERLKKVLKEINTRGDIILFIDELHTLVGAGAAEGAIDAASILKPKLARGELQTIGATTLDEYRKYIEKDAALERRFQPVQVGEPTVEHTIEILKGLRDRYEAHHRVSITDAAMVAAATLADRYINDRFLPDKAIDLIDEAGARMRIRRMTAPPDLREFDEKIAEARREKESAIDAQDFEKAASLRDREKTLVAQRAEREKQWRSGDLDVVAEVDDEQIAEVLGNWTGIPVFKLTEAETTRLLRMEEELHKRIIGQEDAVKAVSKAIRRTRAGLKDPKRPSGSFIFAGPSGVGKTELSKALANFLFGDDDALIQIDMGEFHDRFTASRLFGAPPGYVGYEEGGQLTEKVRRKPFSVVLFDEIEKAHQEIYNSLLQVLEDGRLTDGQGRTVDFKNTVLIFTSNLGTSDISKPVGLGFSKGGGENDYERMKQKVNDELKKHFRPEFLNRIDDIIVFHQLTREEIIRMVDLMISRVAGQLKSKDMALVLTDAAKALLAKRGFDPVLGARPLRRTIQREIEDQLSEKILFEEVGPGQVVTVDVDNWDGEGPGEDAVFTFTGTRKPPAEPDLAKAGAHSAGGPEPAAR
# ClpC1-NTD substrate, M. tuberculosis ClpC1P1P2, sequence (P9WPC3 whole entry, further chain): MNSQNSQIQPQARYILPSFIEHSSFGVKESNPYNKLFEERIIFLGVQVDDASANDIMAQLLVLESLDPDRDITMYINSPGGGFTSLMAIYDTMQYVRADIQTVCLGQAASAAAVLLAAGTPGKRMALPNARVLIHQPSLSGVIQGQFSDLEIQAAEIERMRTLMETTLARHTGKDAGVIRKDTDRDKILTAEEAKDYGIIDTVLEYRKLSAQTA
# [9] = target: endogenous ClpC1 in Msm #607 cells (Mycolicibacterium smegmatis, UniProt A0R574); type: cell-based, M. smegmatis
# endogenous ClpC1 in Msm #607 cells, sequence (A0R574 whole entry): as the sequence (A0R574 whole entry) above
# [10] = read-out: DC50, single measurements
compound,measurement,setting,value
CO[C@H](c1ccccc1)[C@@H]1NC(=O)[C@H](C)NC(=O)[C@H](C[C@@H](C)CO)N(C)C(=O)[C@H](Cc2cn(Cc3cn(CCOCCOCCOCCn4cc(Cn5cc(C[C@@H]6NC(=O)[C@H](C(C)C)NC(=O)[C@H](CC(C)C)N(C)C(=O)[C@H](C(C)C)NC(=O)[C@H]([C@H](OC)c7ccccc7)NC(=O)[C@H](C)NC(=O)[C@H](C[C@@H](C)CO)N(C)C6=O)c6ccccc65)nn4)nn3)c3ccccc23)NC(=O)[C@H](C(C)C)NC(=O)[C@H](CC(C)C)N(C)C(=O)[C@H](C(C)C)NC1=O [Compound 7],Kd,"[1]; SPR (Supplementary Table 1), read-out: KD ClpC1-NTD Mean ± SD",0.46 ± 0.05 nM
same,koff,"[1]; SPR dissociation rate constant, read-out: koff ClpC1-NTD Mean ± SD",0.001 s⁻¹
same,koff ClpC1-NTD,"[1]; SPR, single independent measurements",0.001 s⁻¹ and 0.0008 s⁻¹ and 0.0006 s⁻¹
same,Kd,"[1]; SPR, single independent measurements, read-out: KD ClpC1-NTD",0.473 nM and 0.459 nM and 0.508 nM and 0.398 nM
same,koff,"[1]; SPR, single independent measurements, read-out: koff ClpC1-NTD",0.001 s⁻¹
same,Microsomal Stability Mouse QH,[2]; Mouse,58.9% and 48.2%
same,Microsomal Stability Mice,[2]; clearance in microsomes,53 %Qh
same,Microsomal Stability Rat QH,[3]; Rat,41.7% and 36.7%
same,Microsomal Stability Rat,[3]; clearance in microsomes,40 %Qh
same,Microsomal Stability Human QH,[4]; Human,> 88.4% and 86.5%
same,Microsomal Stability Human,[4]; clearance in microsomes,88 %Qh
same,MIC,"[5]; Mycobacterium tuberculosis, Mtb H37Rv (Supplementary Table 2), read-out: MIC Mtb",0.1 µM
same,MIC,"[5]; Mycobacterium tuberculosis, single determinations, read-out: Mtb MIC",0.098 µM
same,MIC,"[5]; single determinations, read-out: Mtb MIC",0.156 µM
same,MIC,"Msm 607; Mycolicibacterium smegmatis, 607, read-out: MIC Msm 607",1.4 ± 0.2 µM
same,MIC,"Msm 607; Mycolicibacterium smegmatis, 607, read-out: Msm 607 MIC, single determinations",1.56 µM
same,Msm 607 MIC,Msm 607; single determinations,1.250 µM
same,Emax,[6],1.22
same,intracellular viable mycobacteria,"[6]; 0.19µM, Day 4, well replicates",5.34 log10 cfu/ml
same,intracellular viable mycobacteria,"[6]; 0.19µM, Day 7, well replicates",5.68 log10 cfu/ml
same,intracellular viable mycobacteria,"[6]; 0.781µM, Day 4, well replicates",4.98 log10 cfu/ml
same,intracellular viable mycobacteria,"[6]; 0.781µM, Day 7, well replicates",4.98 log10 cfu/ml
same,intracellular viable mycobacteria,"[6]; 3.125µM, Day 4, well replicates",4.75 log10 cfu/ml
same,intracellular viable mycobacteria,"[6]; 3.125µM, Day 7, well replicates",4.56 log10 cfu/ml
same,intracellular viable mycobacteria,"[6]; 50µM, Day 4, well replicates",4.39 log10 cfu/ml and 4.51 log10 cfu/ml
same,intracellular viable mycobacteria,"[6]; 50µM, Day 7, well replicates",3.96 log10 cfu/ml
CO[C@@H](c1ccccc1)[C@H]1NC(=O)[C@@H](C)NC(=O)[C@@H](C[C@H](C)CO)N(C)C(=O)[C@@H](Cc2cn(C)c3ccccc23)NC(=O)[C@@H](Cc2cn(CCCCCn3cc(C[C@H]4NC(=O)[C@@H](CC(C)C)N(C)C(=O)[C@@H](C(C)C)NC(=O)[C@@H]([C@@H](OC)c5ccccc5)NC(=O)[C@@H](C)NC(=O)[C@@H](C[C@H](C)CO)N(C)C(=O)[C@@H](Cc5cn(C)c6ccccc56)NC4=O)nn3)nn2)NC(=O)[C@@H](CC(C)C)N(C)C(=O)[C@@H](C(C)C)NC1=O [Compound 12a],degradation of the His6-tagged ClpC1-NTD substrate,[7],did not cause any degradation
same,DC50,"[7]; read-out: DC50, Mean",> 100000 nM
same,DC50,[7]; [10],> 100000 nM
same,DC50,"[8]; read-out: DC50, Mean",> 100000 nM
same,DC50,[8]; [10],> 100000 nM
same,intracellular degradation of ClpC1,[9],inactive
